Square brackets hold non-standard residues; d marks the D form. * marks the point of attachment. Octanoyl = CCCCCCCC(=O)*; Dab = NCC[C@H](N)C(=O)O; Hexanoyl = CCCCCC(=O)*
Legend:
[1] = test system: Acinetobacter baumannii ATCC 17978; experiment: MIC assay, sensitizing effect of peptide on antibiotics; type: cell-based; conditions: for sensitizing ability to erythromycin and novobiocin: recap of Example 1; for MIC reduction effect (fold reduction) of erythromycin: peptide 0.4 uM with erythromycin vs erythromycin alone
Experimental: Each peptide at a concentration of 0.4 uM was used together with the two gram-positive antibiotics erythromycin and novobiocin to identify their effect on Acinetobacter baumannii ATCC 17978 (MIC assay). Acinetobacter baumannii, which is Gram-negative bacteria commonly classified as an opportunistic pathogen, is a human-infecting bacterium with a high probability of nosocomial infection because it has broad-spectrum antibacterial resistance and is able to survive for a long time even in a low-humidity environment. For each of the gram-positive antibiotics, as compared with MIC of each antibiotic in a case of being used alone, fold reduction of MIC of each antibiotic was measured in a case where each antibiotic was used together with each peptide.
All MIC assay experiments were performed using the Clinical and Laboratory Standards Institute (CLSI) guidelines (Clinical & Laboratory Standards Institute: CLSI Guidelines, 2017). […] The cells were inoculated at 1.5×10^5 CFU per 200 μL solution of each well in a 96-well plate. The peptide and the antibiotic were prepared using 2-fold serially diluted concentrations. […] Incubation was performed at 37° C. for 18 hours, and then absorbance was measured at 600 nm using an EPOCH2 microplate reader (BioTek, Winooski, USA) to calculate a MIC value. […] Fold reduction was calculated using the following expression.
(§1) Fold reduction=MIC of antibiotic alone/MIC of antibiotic in presence of sensitizing peptide
The same MIC assay method as in Example 3 was used.
(§2) ATCC 25922, A.b. ATCC 17978, K.p. ATCC 700603, and P.a. ATCC 27853, or CRE (E.c. NDM-1, K.p. NDM-1, or K.p. KPC) (FIGS. 9 and 10).

Gram-negative bacteria = conditions: cited from earlier work
host cells = conditions: cited from earlier work
[2] = test system: Acinetobacter baumannii ATCC 17978; experiment: MIC assay, sensitizing effect of peptide on antibiotics; type: cell-based
E. coli ATCC 25922 = experiment: MIC assay, sensitizing effect of peptide on antibacterial agents; type: cell-based
Experimental: (§3) All MIC assay experiments were performed using the Clinical and Laboratory Standards Institute (CLSI) guidelines (Clinical & Laboratory Standards Institute: CLSI Guidelines, 2017). Bacterial cells cultured overnight were diluted to 0.05 McFarland standard using McFarland (KIT […] PLUS INSTRUMENT, Biomerieux) in Muller Hinton II Broth (cation-adjusted) (Difco). The cells were inoculated at 1.5×10^5 CFU per 200 μL solution of each well in a 96-well plate. The peptide and the antibiotic were prepared using 2-fold serially diluted concentrations. […] Incubation was performed at 37° C. for 18 hours, and then absorbance was measured at 600 nm using an EPOCH2 microplate reader (BioTek, Winooski, USA) to calculate a MIC value. The MIC value was defined as a concentration of the antibiotic or peptide at which bacterial growth was inhibited to a level of lower than 10% growth of the positive control. Fold reduction was calculated using the following expression.
as §1
Using the same MIC assay method as in Example 1, sensitizing effects of the peptide L9P (CMP1107, 1 ug/ml), which is known as a conventional sensitive AMP, and CMP1401 (1 ug/ml) were compared on existing antibacterial agents against E. coli ATCC 25922 (FIG. 5A).
In addition, MIC screening was used to compare sensitizing effects of the competitive drug SPR741 and the peptide CMP1401 or CMP1501 on the existing antibacterial agents against E. coli ATCC 25922 (FIGS. 5B and 5C). SPR741, which is a previously known polymyxin B (PMB) analog, is a sensitive AMP, and is a drug that has been identified through preclinical experiments to be effective against Gram-negative bacteria in a case of being used together with existing Gram-positive antibiotics.
as §2

K.p. ATCC 700603 = experiment: MIC assay, sensitizing effect of peptide on rifampicin; type: cell-based, Klebsiella pneumoniae; conditions: FIG. 9C, peptide 4 ug/ml
Experimental: as §3, §2

P.a. ATCC 27853 = experiment: MIC assay, sensitizing effect of peptide on rifampicin or colistin; type: cell-based, Pseudomonas aeruginosa; conditions: peptide 4 ug/ml
Experimental: as §3, §2

Ec NDM-1 = experiment: MIC assay, sensitizing effect of peptide on rifampicin (CRE); type: cell-based, E. coli; conditions: FIG. 9E; Ec NDM-1 (CRE); peptide 4 ug/ml
Experimental: as §3, §2

Kp NDM-1 = experiment: as above; type: cell-based, Klebsiella pneumoniae; conditions: FIG. 9F; Kp NDM-1 (CRE); peptide 4 ug/ml
Experimental: as §3, §2

K.p. KPC = experiment: MIC assay, sensitizing effect of peptide on rifampicin or colistin (CRE); type: cell-based, Klebsiella pneumoniae; conditions: peptide 4 ug/ml
Experimental: as §3, §2

[3] = test system: E.c. ATCC 25922, A.b. ATCC 17978, K.p. ATCC 700603, P.a. ATCC 27853, or CRE (E.c. NDM-1, K.p. NDM-1, or K.p. KPC); experiment: MIC assay, comparison with L9P on rifampicin or colistin; type: cell-based; conditions: FIGS. 9 and 10
Experimental: as §3, §2

[4] = test system: E. cloacae clinical strains; experiment: MIC50 and MIC90 in clinical strains with CMP1709 (colistin); type: cell-based; conditions: CMP1709 4 ug/ml with colistin vs colistin alone; results not shown
Text: (§4) The selected clinical strains E. coli, K. pneumoniae, E. cloacae, C. freundii, and S. marcescens were all carbapenem-resistant strains, and the selected clinical strain P. aeruginosa included 43 strains of imipenem- and meropenem-resistant strains, and 60 strains of imipenem- and meropenem-sensitive strains.
(§5) The results are illustrated in FIG. 11 (results not shown for colistin). The “Fold reduction of MIC90” in FIG. 11 indicates a MIC90 value observed in a case where the antibacterial agent was used in combination with CMP1709 as compared with a case where the antibacterial agent was used alone.

E. coli clinical strains = experiment: as above; type: cell-based; conditions: CMP1709 4 ug/ml with colistin vs colistin alone; results not shown
Text: as §4, §5

E. coli NDM-1 = experiment: Neutropenic mouse thigh infection model; type: in vivo
[5] = test system: outer membrane of E. coli NDM-1; experiment: Enzyme assay, outer membrane leakage (β-lactamase release, CENTA); type: cell-based; conditions: peptide 0.63 or 1.30 uM, 37° C., 1 h; 200 μM CENTA
Experimental: (§6) It was observed, through an enzyme assay, whether the sensitizing peptide destroyed the outer and inner membranes of Gram-negative bacteria. In the presence of the sensitizing peptide, it was observed whether in a case where 1.5 mM ONPG was used together therewith, β-galactosidase was released from E. coli ATCC 25922 for the inner membrane, and whether in a case where 200 μM CENTA was used together therewith, β-lactamase was released from E. coli NDM-1 for the outer membrane.
Specifically, to determine leakage of the outer membrane, activity of the β-lactamase released from the outer membrane was evaluated. New Delhi metallo-β-lactamase-1 (NDm-1)-producing E. coli cells were washed three times with DPBS and suspended in the same buffer. The cells were diluted to an OD600 of 0.2 and treated with the peptide at a concentration of 0.63 or 1.30 uM at 37° C. for 1 h. After centrifugation, the supernatant was incubated with 200 μM CENTATM β-lactamase substrate at 37° C. for 1 hour. An optical density was obtained by measuring absorbance of a product of enzyme reaction at 405 nm using a microplate reader (Molecular Devices Co., Menlo Park, Calif.).
The results are illustrated in FIGS. 12A and 12B. The y-axis is absorbance measured at 405 nm, and higher absorbance is observed as a higher amount of β-lactamase is released due to destruction of the membrane.

[6] = test system: inner membrane of E. coli ATCC 25922; experiment: Enzyme assay, inner membrane leakage (β-galactosidase release, ONPG); type: cell-based; conditions: 1.5 mM ONPG
Experimental: as §6
To determine leakage of the inner membrane, release of the cytoplasmic enzyme β-galactosidase was evaluated. The bacteria were diluted to OD600=1 and 1.5 mM ONPG (O-nitrophenyl-β-D-galactopyranoside) was added. Absorbance of a product of enzyme reaction was measured at 420 nm. The other procedures were carried out in the same manner as in the experiment for outer membrane destruction.

## Ac-AKLLKLLKKPLKLLK-NH2 [CMP1301]
[1]
  sensitizing ability to erythromycin and novobiocin: excellent sensitizing ability

## Ac-KKALKLLKKPLKLLK-NH2 [CMP1303]
[1]
  MIC reduction effect (fold reduction) of erythromycin: 8 times

## Ac-KKLLKLAKKPLKLLK-NH2 [CMP1307]
[1]
  MIC reduction effect (fold reduction) of erythromycin: 8 times
  sensitizing ability to erythromycin and novobiocin: excellent sensitizing ability

## Ac-KKLLKLLKKPLKLLK-NH2 [CMP1203]
[1]
  MIC reduction effect (fold reduction) of erythromycin: two times

## Ac-KLLKLLKKPLKLLK-NH2 [CMP1107]
Gram-negative bacteria; Korean Patent No. 1811437
  efficacy against E. coli: weak efficacy against E. coli
Gram-negative bacteria; previously known sensitizing peptide
  destruction of membranes of Gram-negative bacteria (known property): known to not destroy the membranes of Gram-negative bacteria
Host cells
  toxicity to host cells: low toxicity to host cells

## HexA-KKALKLAKKPLKLLK-NH2 (Hexanoyl-KKALKLAKKPLKLLK-NH2) [CMP1406]
[2]; peptide 0.31 μM, vs fusidic acid alone
  sensitizing effect for fusidic acid: 32 times
[2]; peptide 0.31 μM, vs novobiocin alone
  sensitizing effect for novobiocin: 8 times
[2]; peptide 0.31 μM, vs rifampicin alone
  sensitizing effect for rifampicin: 8 times

## OctA-DabDabAFDabVADabDabPLSLLDab-NH2 (Octanoyl-[Dab][Dab]AF[Dab]VA[Dab][Dab]PLSLL[Dab]-NH2; SMILES CCCCCCCC(=O)N[C@@H](CCN)C(=O)N[C@@H](CCN)C(=O)N[C@@H](C)C(=O)N[C@@H](Cc1ccccc1)C(=O)N[C@@H](CCN)C(=O)N[C@H](C(=O)N[C@@H](C)C(=O)N[C@@H](CCN)C(=O)N[C@@H](CCN)C(=O)N1CCC[C@H]1C(=O)N[C@@H](CC(C)C)C(=O)N[C@@H](CO)C(=O)N[C@@H](CC(C)C)C(=O)N[C@@H](CC(C)C)C(=O)N[C@@H](CCN)C(N)=O)C(C)C) [CMP1709]
E. coli ATCC 25922; FIG. 9A, E.c. ATCC 25922, peptide 4 ug/ml
  Decreased MIC value of rifampicin at peptide concentration of 4 ug/ml: 0.0020 µg/mL
E. coli ATCC 25922; FIG. 10A, E.c. ATCC 25922, peptide 4 ug/ml
  Decreased MIC value of colisitin at peptide concentration of 4 ug/ml: 0.016 µg/mL
K.p. ATCC 700603
  Decreased MIC value of rifampicin at peptide concentration of 4 ug/ml: 0.0078 µg/mL
P.a. ATCC 27853; FIG. 9D
  Decreased MIC value of rifampicin at peptide concentration of 4 ug/ml: 0.25 µg/mL
P.a. ATCC 27853; FIG. 10B
  Decreased MIC value of colisitin at peptide concentration of 4 ug/ml: 0.063 µg/mL
Ec NDM-1
  Decreased MIC value of rifampicin at peptide concentration of 4 ug/ml: 0.0040 µg/mL
Kp NDM-1
  Decreased MIC value of rifampicin at peptide concentration of 4 ug/ml: 0.0078 µg/mL
K.p. KPC; FIG. 9G
  Decreased MIC value of rifampicin at peptide concentration of 4 ug/ml: 0.0078 µg/mL
K.p. KPC; FIG. 10C
  Decreased MIC value of colisitin at peptide concentration of 4 ug/ml: 0.50 µg/mL
[3]
  sensitizing effect on rifampicin or colistin compared with L9P: very good sensitizing effect
[4]
  sensitizing effect with colistin: two times
E. coli clinical strains
  sensitizing effect with colistin: two times
E. coli NDM-1; CMP1709 75 mg/kg in the presence of 20 mg/kg of rifampicin
  decrease in number of colonies compared with rifampicin alone: 8.7 fold
E. coli NDM-1; CMP1709 alone
  number of colonies, peptide administered alone: No changes were observed in the number of colonies
E. coli NDM-1; rifampicin and CMP1709
  therapeutic efficacy of combination therapy with rifampicin: excellent therapeutic efficacy
[2]; FIG. 9B, A.b. ATCC 17978, peptide 4 ug/ml
  Decreased MIC value of rifampicin at peptide concentration of 4 ug/ml: 0.078 µg/mL

## OctA-DabDabALDabLADabDabPLDabLLDab-NH2 [CMP1501]
E. coli ATCC 25922; FIGS. 5B and 5C
  sensitizing effect on existing antibacterial agents compared with SPR741: almost the same or much better sensitizing effect
E. coli ATCC 25922; peptide 0.5 ug/ml
  sensitizing effects on rifampicin and linezolid: excellent sensitizing effects
E. coli ATCC 25922; peptide concentration decreased by half as compared with SPR741, FIG. 5C
  sensitizing effect compared with SPR741 at half its concentration: equal or superior effect

## OctA-KKLLKLLKKPLKLLK-NH2 (Octanoyl-KKLLKLLKKPLKLLK-NH2; SMILES CCCCCCCC(=O)N[C@@H](CCCCN)C(=O)N[C@@H](CCCCN)C(=O)N[C@@H](CC(C)C)C(=O)N[C@@H](CC(C)C)C(=O)N[C@@H](CCCCN)C(=O)N[C@@H](CC(C)C)C(=O)N[C@@H](CC(C)C)C(=O)N[C@@H](CCCCN)C(=O)N[C@@H](CCCCN)C(=O)N1CCC[C@H]1C(=O)N[C@@H](CC(C)C)C(=O)N[C@@H](CCCCN)C(=O)N[C@@H](CC(C)C)C(=O)N[C@@H](CC(C)C)C(=O)N[C@@H](CCCCN)C(N)=O) [CMP1407]
[5]
  destruction of outer membrane (β-lactamase release): did not destroy these membranes
[6]
  destruction of inner membrane (β-galactosidase release): did not destroy these membranes
